Where two headings read alike, the source gives them in different places.
Target: IDH1 R132H (Homo sapiens, UniProt O75874, R132H)
Experiment: Assay for IDH1 R132H inhibitors (NADPH/aKG, resazurin detection)
Format: biochemical
Summary of the method: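 Read-out is resorufin fluorescence (Ex544/Em590) 5 min after adding a 30 μM resazurin detection mix. Before that, mutant enzyme (0.2 μg/ml in its mix) ran 50 min at room temperature with compound, 8 uM NADPH and 2 mM aKG (mix levels) in Tris pH 7.5 with NaCl, MgCl2, BSA.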

[1] = enzyme assay of Example 12, read-out: IDH1R132H IC50
[2] = Table 3, enzyme assay, 50 minutes at room temperature, read-out: IC50 (IDH1 R132H Inhibition)

IDH1 R132H, sequence (O75874 whole entry R132H): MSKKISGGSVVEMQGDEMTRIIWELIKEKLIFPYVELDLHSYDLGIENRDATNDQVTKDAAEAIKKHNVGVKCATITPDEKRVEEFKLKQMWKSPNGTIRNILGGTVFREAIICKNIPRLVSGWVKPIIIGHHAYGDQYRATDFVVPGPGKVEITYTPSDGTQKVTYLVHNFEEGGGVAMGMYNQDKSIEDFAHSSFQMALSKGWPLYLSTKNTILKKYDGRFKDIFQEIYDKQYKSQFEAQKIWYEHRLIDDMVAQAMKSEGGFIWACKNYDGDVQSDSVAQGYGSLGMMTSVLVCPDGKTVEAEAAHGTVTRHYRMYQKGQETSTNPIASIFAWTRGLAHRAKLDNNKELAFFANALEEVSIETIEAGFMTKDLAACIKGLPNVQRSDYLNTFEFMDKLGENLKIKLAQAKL

IC50 [1]	IC50 [2]	SMILES
< 500 nM	–	C=Cc1cc(-c2cc(C#N)c(N3CCN(C(=O)CC4CCC(=O)O4)[C@H](C4CC4)C3)nc2C2CC2)ccn1 (stereo partly drawn) [Compound 802, 2-cyclopropyl-6-((3R)-3-cyclopropyl-4-(2-(5-oxotetrahydrofuran-2-yl)acetyl)piperazin-1-yl)-2′-vinyl-[3,4′-bipyridine]-5-carbonitrile]
–	5000 to 15000 nM	CC(C)c1nc(N2CCN(C(=O)c3ccoc3)C(c3ccccc3)C2)c(C#N)cc1-c1ccccc1 (centres unmarked) [Compound 153, 2-(4-(furan-3-carbonyl)-3-phenylpiperazin-1-yl)-6-isopropyl-5-phenylnicotinonitrile]
500 to 1000 nM	–	COCCC(=O)N1CCN(c2nc(C3CC3)c(-c3ccc(C#N)nc3)cc2C#N)C[C@H]1C [Compound 584, (R)-2-cyclopropyl-6-(4-(3-methoxypropanoyl)-3-methylpiperazin-1-yl)-3,3′-bipyridine-5,6′-dicarbonitrile]
< 500 nM	–	COCCC(=O)N1CCN(c2nc(C3CC3)c(-c3ccc(N4CCNCC4)nc3)cc2C#N)C[C@H]1C [Compound 396, (R)-2-cyclopropyl-6-[4-(3-methoxy-propionyl)-3-methyl-piperazin-1-yl]-6′-piperazin-1-yl-[3,3′]bipyridinyl-5-carbonitrile]
–	1000 to 5000 nM	COCCC(=O)N1CCN(c2nc(C(C)C)c(OCc3ccccc3)cc2C#N)C[C@H]1C [Compound 254, (R)-5-(benzyloxy)-6-isopropyl-2-(4-(3-methoxypropanoyl)-3-methylpiperazin-1-yl)nicotinonitrile]
< 500 nM	–	COCCC(=O)N1CCN(c2nc(C3CC3)c(-c3ccc4cc[nH]c4c3)cc2C#N)C[C@H]1C [Compound 289, (R)-6-cyclopropyl-5-(1H-indol-6-yl)-2-(4-(3-methoxypropanoyl)-3-methylpiperazin-1-yl)nicotinonitrile]
500 to 1000 nM	–	C=Cc1cc(-c2c(C3CC3)nc(N3CCN(C(=O)OC(C)(C)C)[C@H](C4CC4)C3)c(C#N)c2C)cnn1 [Compound 772, (R)-tert-butyl 4-(3-cyano-6-cyclopropyl-4-methyl-5-(6-vinylpyridazin-4-yl)pyridin-2-yl)-2-cyclopropylpiperazine-1-carboxylate]
< 500 nM	–	COCCC(=O)N1CCN(c2nc(C3CC3)c(-c3ccc(F)c4ccccc34)cc2C#N)C[C@H]1C [Compound 290, (R)-6-cyclopropyl-5-(4-fluoronaphthalen-1-yl)-2-(4-(3-methoxypropanoyl)-3-methylpiperazin-1-yl)nicotinonitrile]
< 500 nM	–	COCCC(=O)N1CCN(c2nc(C3CC3)c(N3CCN(CC4CC4)CC3)cc2C#N)C[C@H]1C [Compound 378, (R)-6-cyclopropyl-5-(4-(cyclopropylmethyl)piperazin-1-yl)-2-(4-(3-methoxypropanoyl)-3-methylpiperazin-1-yl)nicotinonitrile]
–	1000 to 5000 nM	COc1cccc(-c2cc(C(C)C)nc(N3CCN(C(=O)c4ccoc4)[C@H](C)C3)c2C#N)c1 [Compound 151, (R)-2-(4-(furan-3-carbonyl)-3-methylpiperazin-1-yl)-6-isopropyl-4-(3-methoxyphenyl)nicotinonitrile]
< 500 nM	–	C=Cc1cc(-c2c(C3CC3)nc(N3CCN(C(=O)CCC4CC4)[C@H](C4CC4)C3)c(C#N)c2C)ccn1 [Compound 825, (R)-2-cyclopropyl-6-(3-cyclopropyl-4-(3-cyclopropylpropanoyl)piperazin-1-yl)-4-methyl-2′-vinyl-3,4′-bipyridine-5-carbonitrile]
–	≤ 1000 nM	COCCC(=O)N1CCN(c2nc(C3CC3)c(-c3ccc4ccccc4c3)c(C)c2C#N)C[C@H]1C [Compound 259, (R)-6-cyclopropyl-2-(4-(3-methoxypropanoyl)-3-methylpiperazin-1-yl)-4-methyl-5-(naphthalen-2-yl)nicotinonitrile]
< 500 nM	–	COCCC(=O)N1CCN(c2nc(C3CC3)c(-c3cccc4c3CN(C)C4=O)cc2C#N)C[C@H]1C [Compound 460, (R)-6-Cyclopropyl-2-(4-(3-methoxypropanoyl)-3-methylpiperazin-1-yl)-5-(2-methyl-1-oxoisoindolin-4-yl)nicotinonitrile]
< 500 nM	–	N#Cc1cncc(-c2cc(C#N)c(N3CCN(C(=O)CC(F)(F)F)[C@H](C4CC4)C3)nc2C2CC2)c1 [Compound 525, (R)-2-cyclopropyl-6-(3-cyclopropyl-4-(3,3,3-trifluoropropanoyl)piperazin-1-yl)-[3,3′-bipyridine]-5,5′-dicarbonitrile]
< 500 nM	–	N#Cc1cc(-c2ccc3ncsc3c2)c(C2CC2)nc1N1CCN(C(=O)C2CC2)[C@H](C2CC2)C1 [Compound 487, (R)-5-(benzo[d]thiazol-6-yl)-2-(4-(cyclopropanecarbonyl)-3-cyclopropylpiperazin-1-yl)-6-cyclopropylnicotinonitrile]
–	1000 to 5000 nM	CC[C@@H]1CN(c2nc(C(C)C)c(-c3ccccc3)cc2C#N)CCN1C(=O)c1ccoc1C [Compound 173, (R)-2-(3-ethyl-4-(2-methylfuran-3-carbonyl)piperazin-1-yl)-6-isopropyl-5-phenylnicotinonitrile]

IC50 [1]	IC50 [2]	SMILES
< 500 nM	–	N#Cc1cc(-c2cccc3nc(Cl)ccc23)c(C2CC2)nc1N1CCN(C(=O)C2CC2)[C@H](C2CC2)C1 [Compound 549, (R)-5-(2-chloroquinolin-5-yl)-2-(4-(cyclopropanecarbonyl)-3-cyclopropylpiperazin-1-yl)-6-cyclopropylnicotinonitrile]
–	5000 to 15000 nM	CC(C)c1cc(-c2ccccc2)nc(N2CCN(C(=O)c3ccco3)CC2)c1C#N [Compound 103, 2-(4-(furan-2-carbonyl)piperazin-1-yl)-4-isopropyl-6-phenylnicotinonitrile]
–	1000 to 5000 nM	CC(C)c1nc(N2CCN(C(=O)Cc3cccs3)[C@H](C)C2)c(C#N)cc1-c1ccc(C(F)(F)F)cc1 [Compound 188, (R)-6-isopropyl-2-(3-methyl-4-(2-(thiophen-2-yl)acetyl)piperazin-1-yl)-5-(4-(trifluoromethyl)phenyl)nicotinonitrile]
< 500 nM	–	COCCC(=O)N1CCN(c2nc(C3CC3)c(N(c3ccnc(C#N)c3)c3ccnc(C#N)c3)cc2C#N)C[C@H]1C [Compound 659, (R)-4,4′-(5-cyano-2-cyclopropyl-6-(4-(3-methoxypropanoyl)-3-methylpiperazin-1-yl)pyridin-3-ylazanediyl)dipicolinonitrile]
–	≤ 1000 nM	COCCC(=O)N1CCN(c2nc(C(C)C)c(-c3ccc(F)cc3)cc2C#N)C[C@H]1C [Compound 207, (R)-5-(4-fluorophenyl)-6-isopropyl-2-(4-(3-methoxypropanoyl)-3-methylpiperazin-1-yl)nicotinonitrile]
–	1000 to 5000 nM	COCCC(=O)N1CCN(c2nc(C(C)C)c(-c3ccc4ccccc4c3)cc2C#N)C[C@H]1C [Compound 211, (R)-6-isopropyl-2-(4-(3-methoxypropanoyl)-3-methylpiperazin-1-yl)-5-(naphthalen-2-yl)nicotinonitrile]
–	≤ 1000 nM	COCCC(=O)N1CCN(c2nc(C3CC3)c(-c3ccc(OC(F)(F)F)cc3)cc2C#N)C[C@H]1C [Compound 227, (R)-6-cyclopropyl-2-(4-(3-methoxypropanoyl)-3-methylpiperazin-1-yl)-5-(4-(trifluoromethoxy)phenyl)nicotinonitrile]
< 500 nM	–	N#Cc1cc(-c2cncc(C(N)=O)c2)c(C2CC2)nc1N1CCN(C(=O)CC(F)(F)F)[C@H](C2CC2)C1 [Compound 540, (R)-5′-cyano-2′-cyclopropyl-6′-(3-cyclopropyl-4-(3,3,3-trifluoropropanoyl)piperazin-1-yl)-[3,3′-bipyridine]-5-carboxamide]
–	5000 to 15000 nM	CC(C)c1nc(N2CCN(C(=O)c3ccoc3)CC2)c(C#N)cc1-c1ccccc1 [Compound 124, 2-(4-(furan-3-carbonyl)piperazin-1-yl)-6-isopropyl-5-phenylnicotinonitrile]
500 to 1000 nM	–	COCCC(=O)N1CCN(c2nc(C3CC3)c(-c3ccc(N)nc3)cc2C#N)C[C@H]1C [Compound 314, (R)-6′-amino-2-cyclopropyl-6-(4-(3-methoxypropanoyl)-3-methylpiperazin-1-yl)-3,3′-bipyridine-5-carbonitrile]
< 500 nM	–	N#Cc1cc(-c2cnnc(O)c2)c(C2CC2)nc1N1CCN(C(=O)C2CC2)[C@H](C2CC2)C1 [Compound 616, (R)-2-(4-(cyclopropanecarbonyl)-3-cyclopropylpiperazin-1-yl)-6-cyclopropyl-5-(6-hydroxypyridazin-4-yl)nicotinonitrile]
500 to 1000 nM	–	N#Cc1cc(-c2ccnc(N)n2)c(C2CC2)nc1N1CCN(C(=O)C2CC2)[C@H](C2CC2)C1 [Compound 507, (R)-5-(2-aminopyrimidin-4-yl)-2-(4-(cyclopropanecarbonyl)-3-cyclopropylpiperazin-1-yl)-6-cyclopropylnicotinonitrile]
500 to 1000 nM	–	COCCC(=O)N1CCN(c2nc(C3CC3)c(-c3cccc(CC(=O)OC)c3)cc2C#N)C[C@H]1C [Compound 291, (R)-methyl 2-(3-(5-cyano-2-cyclopropyl-6-(4-(3-methoxypropanoyl)-3-methylpiperazin-1-yl)pyridin-3-yl)phenyl)acetate]
–	1000 to 5000 nM	CC1CN(c2nc(C3CCCCC3)cc(-c3ccccc3)c2C#N)CCN1C(=O)c1ccoc1 (centres unmarked) [Compound 138, 6-cyclohexyl-2-(4-(furan-3-carbonyl)-3-methylpiperazin-1-yl)-4-phenylnicotinonitrile]
–	1000 to 5000 nM	COc1ccccc1-c1cc(C#N)c(N2CCN(C(=O)c3ccoc3C)[C@H](C)C2)nc1C(C)C [Compound 178, (R)-6-isopropyl-5-(2-methoxyphenyl)-2-(3-methyl-4-(2-methylfuran-3-carbonyl)piperazin-1-yl)nicotino-nitrile]
500 to 1000 nM	–	COCCC(=O)N1CCN(c2nc(C3CC3)c(N3CCOCC3)cc2C#N)C[C@H]1C [Compound 375, (R)-6-cyclopropyl-2-(4-(3-methoxypropanoyl)-3-methylpiperazin-1-yl)-5-morpholinonicotinonitrile]

— US9856279B2 (AGIOS PHARMACEUTICALS, INC, priority 2011, dated 2018)
